Read-outs that look alike come from different tables or passages of the source.
Experiments:
AktK = AktK (Homo sapiens, UniProt P31749); experiment: Luciferase-coupled chemiluminescence kinase assay (ATP consumption); assay type: biochemical; settings: read-out: AKT-1 IC50
Outline: (§1)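 Activity is read as ATP depletion: luciferase-luciferin reagent added after a 3 h ambient-temperature kinase reaction, with total ATP use limited to 25-60%. Before ATP addition, 2.5-5 nM kinase and compound were preincubated 30 min in Tris pH 7.5/MgCl2/TX-100/DTT buffer; […].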

p70S6K = p70S6K (Homo sapiens, UniProt P23443); experiment: as above; assay type: biochemical
Outline: as §1

p70S6K, sequence (P23443 whole entry): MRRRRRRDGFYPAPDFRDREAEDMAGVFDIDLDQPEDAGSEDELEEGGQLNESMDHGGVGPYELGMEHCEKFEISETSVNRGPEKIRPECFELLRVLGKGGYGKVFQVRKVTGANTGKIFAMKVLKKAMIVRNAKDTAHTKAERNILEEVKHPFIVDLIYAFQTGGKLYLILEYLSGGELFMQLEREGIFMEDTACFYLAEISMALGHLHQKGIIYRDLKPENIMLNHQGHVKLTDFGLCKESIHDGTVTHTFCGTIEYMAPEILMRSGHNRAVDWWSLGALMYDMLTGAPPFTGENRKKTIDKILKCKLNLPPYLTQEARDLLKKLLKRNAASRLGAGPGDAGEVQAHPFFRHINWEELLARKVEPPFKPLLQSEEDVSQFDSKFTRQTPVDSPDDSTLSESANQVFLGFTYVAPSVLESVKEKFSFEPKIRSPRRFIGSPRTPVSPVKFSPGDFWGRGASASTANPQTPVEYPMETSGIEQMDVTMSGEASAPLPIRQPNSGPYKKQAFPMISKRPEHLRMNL
AktK, sequence (P31749 whole entry): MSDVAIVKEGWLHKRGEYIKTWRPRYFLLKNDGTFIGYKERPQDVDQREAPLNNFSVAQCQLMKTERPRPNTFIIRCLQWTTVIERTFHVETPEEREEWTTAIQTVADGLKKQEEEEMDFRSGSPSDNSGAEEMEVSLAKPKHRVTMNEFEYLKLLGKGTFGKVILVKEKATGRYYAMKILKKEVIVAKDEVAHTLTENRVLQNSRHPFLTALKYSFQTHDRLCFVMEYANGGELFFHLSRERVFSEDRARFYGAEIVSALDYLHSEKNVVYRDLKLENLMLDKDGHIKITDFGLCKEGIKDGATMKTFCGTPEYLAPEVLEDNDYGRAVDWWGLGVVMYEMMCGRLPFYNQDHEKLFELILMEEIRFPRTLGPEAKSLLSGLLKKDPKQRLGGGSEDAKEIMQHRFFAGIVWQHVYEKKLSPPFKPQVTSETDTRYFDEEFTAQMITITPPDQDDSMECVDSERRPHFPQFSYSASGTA

Compound	IC50 (AktK; Table 1, class symbols per key)	IC50 (p70S6K; Table 1, class symbols per key)	IC50 (AktK)	IC50 (p70S6K)
CC(=O)c1cc(NCCN2CCCC2)c(C)c(N2CCN(c3ncnc4[nH]nc(Br)c34)CC2)c1 [Entry 252, 1-{3-[4-(3-bromo-1H-pyrazolo[3,4-d]pyrimidin-4-yl)piperazin-1-yl]-4-methyl-5-[(2-pyrrolidin-1-ylethyl)amino]phenyl}ethanone]	< 100 nM	< 100 nM	–	–
Cc1c(CCCN2CCCCC2)cc(Cl)cc1N1CCN(c2ncnc3[nH]nc(C(F)(F)F)c23)CC1 [Entry 100, 4-{4-[5-chloro-2-methyl-3-(3-piperidin-1-ylpropyl)phenyl]piperazin-1-yl}-3-(trifluoromethyl)-1H-pyrazolo[3,4-d]pyrimidine]	100 to 1000 nM	< 100 nM	–	–
Cc1ccc(Cl)cc1N1CCN(c2ncnc3[nH]nc(-c4ccncc4)c23)CC1 [Entry 364, 4-[4-(5-chloro-2-methylphenyl)piperazin-1-yl]-3-pyridin-4-yl-1H-pyrazolo[3,4-d]pyrimidine]	–	–	1000 to 10000 nM	< 100 nM
COC(=O)c1cc(NCCN2CCCC2)c(C)c(N2CCN(c3ncnc4[nH]nc(Br)c34)CC2)c1 [Entry 190, methyl 3-[4-(3-bromo-1H-pyrazolo[3,4-d]pyrimidin-4-yl)piperazin-1-yl]-4-methyl-5-[(2-pyrrolidin-1-ylethyl)amino]benzoate]	< 100 nM	< 100 nM	–	–
4-[4-(5-chloro-2-methylphenyl)piperazin-1-yl]-3-(3-pyrrolidin-1-ylpropyl)-1H-pyrazolo[3,4-d]pyrimidine [Entry 400]	–	–	1000 to 10000 nM	1000 to 10000 nM
Cc1ccc(Cl)cc1N1CCN(c2ncnc3[nH]nc(-c4cccc(O)c4)c23)CC1 [Entry 335, 3-{4-[4-(5-chloro-2-methylphenyl)piperazin-1-yl]-1H-pyrazolo[3,4-d]pyrimidin-3-yl}phenol]	–	–	1000 to 10000 nM	100 to 1000 nM
Cc1c(NCCN2CCCC2)cc(OCC2CCC2)cc1N1CCN(c2ncnc3[nH]nc(Br)c23)CC1 [Entry 211, 3-[4-(3-bromo-1H-pyrazolo[3,4-d]pyrimidin-4-yl)piperazin-1-yl]-5-[(cyclobutylmethyl)oxy]-2-methyl-N-(2-pyrrolidin-1-ylethyl)aniline]	< 100 nM	< 100 nM	–	–
CCc1n[nH]c2ncnc(N3CCN(c4cc(Cl)cc(C#CCN(C)C)c4C)CC3)c12 [Entry 385, 3-{5-chloro-3-[4-(3-ethyl-1H-pyrazolo[3,4-d]pyrimidin-4-yl)piperazin-1-yl]-2-methylphenyl}-N,N-dimethylprop-2-yn-1-amine]	–	–	1000 to 10000 nM	< 100 nM
Cc1c(OCCCN2CCOCC2)cc(Cl)cc1N1CCN(c2ncnc3[nH]nc(Br)c23)CC1 [Entry 38, 3-bromo-4-(4-{5-chloro-2-methyl-3-[(3-morpholin-4-ylpropyl)oxy]phenyl}piperazin-1-yl)-1H-pyrazolo[3,4-d]pyrimidine]	100 to 1000 nM	< 100 nM	–	–
Cc1c(NCCN2CCCC2)cc(C#CC(C)(C)C)cc1N1CCN(c2ncnc3[nH]nc(Br)c23)CC1 [Entry 238, 3-[4-(3-bromo-1H-pyrazolo[3,4-d]pyrimidin-4-yl)piperazin-1-yl]-5-(3,3-dimethylbut-1-yn-1-yl)-2-methyl-N-(2-pyrrolidin-1-ylethyl)aniline]	< 100 nM	< 100 nM	–	–
Brc1n[nH]c2ncnc(N3CCN(c4cccc(OCCN5CCCCC5)c4)CC3)c12 [Entry 142, 3-bromo-4-(4-{3-[(2-piperidin-1-ylethyl)oxy]phenyl}piperazin-1-yl)-1H-pyrazolo[3,4-d]pyrimidine]	1000 to 10000 nM	100 to 1000 nM	–	–
Cc1nc(-c2cc(NCCN3CCCC3)c(C)c(N3CCN(c4ncnc5[nH]nc(Br)c45)CC3)c2)no1 [Entry 259, 3-[4-(3-bromo-1H-pyrazolo[3,4-d]pyrimidin-4-yl)piperazin-1-yl]-2-methyl-5-(5-methyl-1,2,4-oxadiazol-3-yl)-N-(2-pyrrolidin-1-ylethyl)aniline]	< 100 nM	< 100 nM	–	–
c1ccc(N2CCN(c3ncnc4[nH]ccc34)CC2)cc1 [Entry 295, 4-(4-phenylpiperazin-1-yl)-7H-pyrrolo[2,3-d]pyrimidine]	–	–	≥ 10000 nM	100 to 1000 nM
Cc1c(NCCN(C)C)cc(OCC(C)(C)F)cc1N1CCN(c2ncnc3[nH]nc(Br)c23)CC1 [Entry 226, N′-{3-[4-(3-bromo-1H-pyrazolo[3,4-d]pyrimidin-4-yl)piperazin-1-yl]-5-[(2-fluoro-2-methylpropyl)oxy]-2-methylphenyl}-N,N-dimethyl-ethane-1,2-diamine]	< 100 nM	< 100 nM	–	–
Cc1cccc(C)c1N1CCN(c2ncnc3[nH]nc(Br)c23)CC1 [Entry 103, 3-bromo-4-[4-(2,6-dimethylphenyl)piperazin-1-yl]-1H-pyrazolo[3,4-d]pyrimidine]	≥ 10000 nM	100 to 1000 nM	–	–
Cc1c(Br)cc(OCC(F)(CF)CF)cc1N1CCN(c2ncnc3[nH]nc(Br)c23)CC1 [Entry 250, 3-bromo-4-[4-(3-bromo-5-{[2,3-difluoro-2-(fluoromethyl)propyl]oxy}-2-methylphenyl)pipera-zin-1-yl]-1H-pyrazolo[3,4-d]pyrimidine]	100 to 1000 nM	< 100 nM	–	–
Cc1c(NCCN2CCCC2)cc(Cl)cc1N1CCN(c2ncnc3[nH]nc(C4CC4)c23)CC1 [Entry 161, 5-chloro-3-[4-(3-cyclopropyl-1H-pyrazolo[3,4-d]pyrimidin-4-yl)piperazin-1-yl]-2-methyl-N-(2-pyrrolidin-1-ylethyl)aniline]	100 to 1000 nM	< 100 nM	–	–
FC(F)(F)c1cc(N2CCN(c3ncnc4[nH]nc(Br)c34)CC2)c2ccccc2n1 [Entry 109, 4-[4-(3-bromo-1H-pyrazolo[3,4-d]pyrimidin-4-yl)piperazin-1-yl]-2-(trifluoromethyl)quinoline]	≥ 10000 nM	< 100 nM	–	–
Cc1ccc(N2CCN(c3ncnc4[nH]nc(Br)c34)CC2)cc1C [Entry 96, 3-bromo-4-[4-(3,4-dimethylphenyl)piperazin-1-yl]-1H-pyrazolo[3,4-d]pyrimidine]	≥ 10000 nM	100 to 1000 nM	–	–
Cc1c(NCCN2CCCC2)cc(CC[Si](C)(C)C)cc1N1CCN(c2ncnc3[nH]nc(Br)c23)CC1 [Entry 246, 3-[4-(3-bromo-1H-pyrazolo[3,4-d]pyrimidin-4-yl)piperazin-1-yl]-2-methyl-N-(2-pyrrolidin-1-ylethyl)-5-[2-(trimethylsilyl)ethyl]aniline]	< 100 nM	< 100 nM	–	–
CCN1CCN(CCCOc2cc(Cl)cc(N3CCN(c4ncnc5[nH]nc(Br)c45)CC3)c2C)CC1 [Entry 86, 3-bromo-4-[4-(5-chloro-3-{[3-(4-ethylpiperazin-1-yl)propyl]oxy}-2-methylphenyl)piperazin-1-yl]-1H-pyrazolo[3,4-d]pyrimidine]	< 100 nM	< 100 nM	–	–

The remaining lines, values ahead:

IC50 (AktK; Table 1, class symbols per key)	IC50 (p70S6K; Table 1, class symbols per key)	IC50 (AktK)	IC50 (p70S6K)	Compound
–	–	1000 to 10000 nM	< 100 nM	CCc1n[nH]c2ncnc(N3CCN(c4cc(Cl)ccc4OC)CC3)c12 [Entry 334, 4-{4-[5-chloro-2-(methyloxy)phenyl]piperazin-1-yl}-3-ethyl-1H-pyrazolo[3,4-d]pyrimidine]
< 100 nM	< 100 nM	–	–	Cc1c(NCCN(C)C)cc(Cl)cc1N1CCN(c2ncnc3[nH]nc(Br)c23)CC1 [Entry 148, N′-{3-[4-(3-bromo-1H-pyrazolo[3,4-d]pyrimidin-4-yl)piperazin-1-yl]-5-chloro-2-methylphenyl}-N,N-dimethylethane-1,2-diamine]
< 100 nM	< 100 nM	–	–	CCCCC(=O)c1cc(NCCN2CCCC2)c(C)c(N2CCN(c3ncnc4[nH]nc(CC)c34)CC2)c1 [Entry 262, 1-{3-[4-(3-ethyl-1H-pyrazolo[3,4-d]pyrimidin-4-yl)piperazin-1-yl]-4-methyl-5-[(2-pyrrolidin-1-ylethyl)amino]phenyl}pentan-1-one]
100 to 1000 nM	< 100 nM	–	–	Cc1c(OCCCN2CCCCC2)cc(Cl)cc1N1CCN(c2ncnc3[nH]nc(Br)c23)CC1 [Entry 37, 3-bromo-4-(4-{5-chloro-2-methyl-3-[(3-piperidin-1-ylpropyl)oxy]phenyl}piperazin-1-yl)-1H-pyrazolo[3,4-d]pyrimidine]
1000 to 10000 nM	< 100 nM	–	–	Cc1c(OCCN2CCCC2)cc(Cl)cc1N1CCN(c2ncnc3[nH]nc(C(C)C)c23)CC1 [Entry 137, 4-(4-{5-chloro-2-methyl-3-[(2-pyrrolidin-1-ylethyl)oxy]phenyl}piperazin-1-yl)-3-(1-methylethyl)-1H-pyrazolo[3,4-d]pyrimidine]
–	–	≥ 10000 nM	100 to 1000 nM	COc1ccccc1N1CCN(c2ncnc3[nH]cnc23)CC1 [Entry 307, 6-{4-[2-(methyloxy)phenyl]piperazin-1-yl}-9H-purine]
1000 to 10000 nM	1000 to 10000 nM	–	–	CCN(CC)CCOc1cc(Cl)cc(N2CCN(c3ncnc4c3c(C(F)(F)F)nn4C(C)(C)C)CC2)c1C [Entry 33, 2-[(5-chloro-3-{4-[1-(1,1-dimethylethyl)-3-(tri-fluoromethyl)-1H-pyrazolo[3,4-d]pyrimidin-4-yl]piperazin-1-yl}-2-methylphenyl)oxy]-N,N-diethylethanamine]
1000 to 10000 nM	< 100 nM	–	–	Cc1c(CCCN2CCCC2)cc(Cl)cc1N1CCN(c2ncnc3[nH]ncc23)CC1 [Entry 59, 4-{4-[5-chloro-2-methyl-3-(3-pyrrolidin-1-ylpropyl)phenyl]piperazin-1-yl}-1H-pyrazolo[3,4-d]pyrimidine]
–	–	1000 to 10000 nM	1000 to 10000 nM	Cc1ccc(Cl)cc1N1CCN(c2nc(C(C)C)nc3[nH]ncc23)CC1 [Entry 326, 4-[4-(5-chloro-2-methylphenyl)piperazin-1-yl]-6-(1-methylethyl)-1H-pyrazolo[3,4-d]pyrimidine]
< 100 nM	< 100 nM	–	–	CCN(CC)CCCOc1cc(Cl)cc(N2CCN(c3ncnc4[nH]nc(Br)c34)CC2)c1C [Entry 83, 3-({3-[4-(3-bromo-1H-pyrazolo[3,4-d]pyrimidin-4-yl)piperazin-1-yl]-5-chloro-2-methylphenyl}oxy)-N,N-diethylpropan-1-amine]
